Data as given in US10059695B2, “Cot modulators and methods of use thereof” (Gilead Sciences, Inc., priority 2016, dated 2018).

What follows are compounds tested against Human Cot (Homo sapiens (Human), UniProt P41279) (assay: High Throughput Cot Biochemical Assay (KinEASE TR-FRET)). Conditions: recombinant human Cot catalytic domain, 400 μM ATP.
Method: Example 24: High Throughput Cot Biochemical Assay
Human Cot enzyme activity was measured using KinEASE (Cisbio), a time-resolved fluorescence resonance energy transfer (TR-FRET) immunoassay. In this assay, Cot-catalyzes the phosporylation of a XL665-labeled peptide substrate. Europium conjugated […] specific antibody binds the resulting phosphorylated peptide. Formation of phosphorylated peptide is quantified by TR-FRET with Europium as the donor and XL665 the acceptor in a 2-step endpoint assay. Purified recombinant human Cot catalytic domain (30-397 amino acids) was purchased from Carna Biosciences. In brief, test compounds serially diluted in DMSO were delivered into Proxy white, low volume, 384 well plates using the Echo 550 acoustic liquid dispenser (Labcyte®). Cot enzyme and substrates were dispensed into assay plates using a Multi-Flo (Bio-Tek Instruments). The standard 5 μL reaction mixture contained 400 μM ATP, 1 μM STK3 peptide, 5 nM of Cot in reaction buffer (10 mM MOPS, pH 7.0, 0.02% NaN3, 0.5 mg/mL BSA, 10 mM MgOAc, 1 mM DTT, 0.025% NP-40, 1.5% glycerol) and 0.1% DMSO. After 2.5 hrs of incubation at room temperature, 5 μL of Stop and Detect Solution (1:200 Europium Cryptate labeled anti-phosphorylated peptide antibody solution and 125 nM strepavidin-XL665 Tracer in a 50 mM Hepes pH 7.0 detection buffer containing sufficient EDTA) was added. The plate was then further incubated for 120 minutes at room temperature and read using an Envision 2103 Multilabeled reader (PerkinElmer) with excitation/emission/FRET emission at 340 nm/615 nm/665 nm, respectively. Fluorescence intensities at 615 nm and 665 nm emission wavelengths were expressed as a ratio (665 nm/615 nm).

Human Cot, sequence (P41279 30-397): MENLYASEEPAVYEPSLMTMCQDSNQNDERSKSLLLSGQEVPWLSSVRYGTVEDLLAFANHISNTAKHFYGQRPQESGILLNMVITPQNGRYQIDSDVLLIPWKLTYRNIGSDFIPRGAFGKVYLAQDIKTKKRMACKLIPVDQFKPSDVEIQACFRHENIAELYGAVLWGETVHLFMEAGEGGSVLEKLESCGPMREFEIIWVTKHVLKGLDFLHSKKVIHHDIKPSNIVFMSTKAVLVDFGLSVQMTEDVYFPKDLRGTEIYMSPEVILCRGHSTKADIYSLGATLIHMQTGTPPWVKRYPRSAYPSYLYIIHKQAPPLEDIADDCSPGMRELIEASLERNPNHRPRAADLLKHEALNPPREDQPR

IC50 [nM]	SMILES
28	Fc1ccc(Nc2ncnc3c(Cl)cc(NC(c4ccccc4)c4cn(C5CCNCC5)nn4)cc23)cc1Cl (stereo not shown) [II-2, 8-chloro-N^4-(3-chloro-4-fluorophenyl)-N^6-(phenyl(1-(piperidin-4-yl)-1H-1,2,3-triazol-4-yl)methyl) quinazoline-4,6-diamine]
1.6	Cc1c(C#N)cccc1[C@H](Nc1cc(Cl)c2ncnc(NCC(C)(C)C)c2c1)c1cn(C2(C(F)F)CC2)nn1 [I-23, (S)-3-(((8-chloro-4-(neopentylamino)quinazolin-6-yl)amino)(1-(1-(difluoromethyl)cyclopropyl)-1H-1,2,3-triazol-4-yl)methyl)-2-methylbenzonitrile]
8480	O=C(OCc1ccccc1)N1CCC(n2cc(C(Nc3cc(Cl)c4ncnc(Nc5ccc(F)c(Cl)c5)c4c3)c3ccccc3)nn2)CC1 (stereo not shown) [II-1, benzyl 4-(4-(((8-chloro-4-((3-chloro-4-fluorophenyl)amino)quinazolin-6-yl)amino)(phenyl)methyl)-1H-1,2,3-triazol-1-yl)piperidine-1-carboxylate]
72	CC(C)(C)N1CCC(n2cc([C@@H](Nc3ccc4ncnc(Nc5ccc(F)c(Cl)c5)c4c3)c3ccc(Cl)cc3)nn2)CC1 [II-5, (S)-N^6-((1-(1-(tert-butyl)piperidin-4-yl)-1H-1,2,3-triazol-4-yl)(4-chlorophenyl)methyl)-N^4-(3-chloro-4-fluorophenyl) quinazoline-4,6-diamine]
49	Fc1ccc(Nc2ncnc3ccc(N[C@@H](c4ccc(Cl)cc4)c4cn(C5CCNCC5)nn4)cc23)cc1Cl [II-6, (S)-N^4-(3-chloro-4-fluorophenyl)-N^6-((4-chlorophenyl)(1-(piperidin-4-yl)-1H-1,2,3-triazol-4-yl)methyl) quinazoline-4,6-diamine]
284	Fc1ccc(Nc2ncnc3ccc(N[C@@H](c4ccc(Cl)cc4)c4cn(C5COC5)nn4)cc23)cc1Cl [II-7, (S)-N^4-(3-chloro-4-fluorophenyl)-N^6-((4-chlorophenyl)(1-(oxetan-3-yl)-1H-1,2,3-triazol-4-yl)methyl) quinazoline-4,6-diamine]
19	CCN1CCC(n2cc(C(Nc3cc(Cl)c4ncnc(Nc5ccc(F)c(Cl)c5)c4c3)c3ccccc3)nn2)CC1 (stereo not shown) [II-3, 8-chloro-N^4-(3-chloro-4-fluorophenyl)-N^6-((1-(1-ethylpiperidin-4-yl)-1H-1,2,3-triazol-4-yl)(phenyl)methyl) quinazoline-4,6-diamine]
